{
  "source": "patent US12678509B2",
  "about": "“Inhibitor of apoptosis (IAP) protein antagonists” (Sanford Burnham Prebys Medical Discovery Institute, priority 2019, dated 2026)",
  "key": {"[1]": {"test_system": "AML-SH-065", "assay": "Cell viability in patient derived AML samples (CellTiterGlo, 72 h)", "format": "cell-based, human", "method": "(§1) Patient AML samples were gathered (under IRB 13-6180) from Scripps MD Anderson, La Jolla, CA Fresh blood samples were subjected to gradient density centrifugation with Ficoll-Paque™ PLUS (17-1440-02, GE Healthcare) and peripheral blood mononuclear cells purified as per manufacturer's protocol.\n(§2) 75 nL of 1000× serially diluted IAP inhibitors were spotted in triplicate onto 384-well tissue culture treated plates (Greiner) using a Labcyte Echo acoustic dispensing device. Patient-derived AML cells were maintained in mTeSR1^+1× supplements (Stemcell Technologies) and penicillin/streptomycin/L-glutamine (Omega Scientific Inc.) and Fungizone (HyClone). 25 μL of cell dilution were plated into 384-well plate containing the drugs and incubated for 72 h. Cell viability was assessed by adding 25 μL CellTiterGlo (Promega Corp.) on a Synergy 2 plate reader with Gen5 software (Biotek). % viability was calculated by normalizing luminescence to vehicle only controls (DMSO) in Microsoft Excel and plotted using GraphPad Prism 8. The IC50 values were calculated using log(inhibitor) vs. response—Variable slope (four parameters) equation. (FIG. 6)"}, "[2]": {"test_system": "AML-SH-075", "assay": "Cell viability in patient derived AML samples (CellTiterGlo, 72 h)", "format": "cell-based, human", "method": "as §1, §2"}, "[3]": {"test_system": "AML-SH-074", "assay": "Cell viability in patient derived AML samples (CellTiterGlo, 72 h)", "format": "cell-based, human", "method": "as §1, §2"}, "[4]": {"test_system": "latently infected cell line Jurkat 2D10", "assay": "Combination with other LRA, Bliss Independence model, GFP expression", "format": "cell-based", "settings": "Jurkat 2D10, 48 hours, with JQ1, I-BET 151, Bryostatin, Ingenol-3-angelate", "method": "Compound 18a was also tested in combination with other LRA reagents for synergistic activation of the latently infected cell line Jurkat 2D10. Jurkat 2D10 cells were treated with combinations of compound 18a and BET inhibitors (JQ1, I-BET 151) or PKC agonists (Bryostatin, Ingenol-3-angelate) for 48 hours. Reversal of HW latency was evaluated by analyzing GFP expression using flow cytometry. Synergy was assessed with the Bliss Independence model where the observed effect of a combination of compounds f12 is compared to the expected effect E(f12) that is calculated based on the observed effects of the individual compounds f1 and f2 using the formula E(f12)=f1+J2−(f1*f2). The difference between the observed effect of the combined compounds (f12) and the expected combined effect of the two compounds E(f12) is given as the excess over Bliss score (EOB). An EOB value greater than 0 indicates synergy between the compounds."}},
  "data": [
    {"smiles": "CN[C@@H](C)C(=O)N[C@H]1CCS[C@H]2CC(C)(C)[C@@H](C(=O)N[C@H]3c4ccccc4C[C@H]3OCC#CC#CCO[C@@H]3Cc4ccccc4[C@@H]3NC(=O)[C@H]3N4C(=O)[C@@H](NC(=O)[C@H](C)NC)CCS[C@H]4CC3(C)C)N2C1=O", "note": "[Compound 18a, (2S)-1-{[(4S,7S,9aS)-74{(1S,2R)-2-[(6-{[(1S,2R)-1-({[(4S,7S,9aS)-8,8-Dimethyl-4-{[(2S)-2-(methylammonio)propanoyl]amino}-5-oxooctahydropyrrolo[2,1-b][1,3]thiazepin-7-yl]carbonyl}amino)-2,3-dihydro-1H-inden-2-yl]oxy}hexa-2,4-diyn-1-yl)oxy]-2,3-dihydro-1H-inden-1-yl}carbamoyl)-8,8-dimethyl-5-oxooctahydropyrrolo[2,1-b][1,3]thiazepinyl]amino}-N-methyl-1-oxopropan-2-ammonium dichloride]", "values": [
      {"measurement": "IC50", "setting": "[1]; Homo sapiens, 72 h, read-out: AML-SH-065 IC50", "result": "< 10", "unit": "nM"},
      {"measurement": "AML-SH-065 Efficacy", "setting": "[1]; patient derived AML sample AML-SH-065, 72 h, cell viability at max. concentration", "result": "I (I < 10%)"},
      {"measurement": "IC50", "setting": "[2]; Homo sapiens, 72 h, read-out: AML-SH-075 IC50", "result": "10 to 100", "unit": "nM"},
      {"measurement": "AML-SH-075 Efficacy", "setting": "[2]; patient derived AML sample AML-SH-075, 72 h, cell viability at max. concentration", "result": "I (I < 10%)"},
      {"measurement": "IC50", "setting": "[3]; Homo sapiens, 72 h, read-out: AML-SH-074 IC50", "result": "100 to 1000", "unit": "nM"},
      {"measurement": "AML-SH-074 Efficacy", "setting": "[3]; patient derived AML sample AML-SH-074, 72 h, cell viability at max. concentration", "result": "I (I < 10%)"},
      {"measurement": "synergy with LRA compounds in reversal of HIV latency", "setting": "[4]", "result": "synergizes with the tested LRA compounds to reverse HW latency"}
    ]}
  ]
}
